# Source: US9028845B2, “Chimeric immunomodulatory compounds and methods of using the same-IV” (Dynavax Technologies Corporation, priority 2001, dated 2015)
# Tests used:
# CD19+ B cells = assay: Human B cell proliferation assay (3H-thymidine incorporation); settings: for cpm2 / cpm3 / mean cpm / cpm1 / mean of both: B cells, 2 μg/ml, Experiment B; for mean of both: mean of donors 121 and 194; for B cell proliferation (FIG. 11), in words: purified human B cells, 5 μg/ml, 96 h
# Method: Purified human B cells from 2 donors were stimulated with 5 μg/ml P-6 or CIC for 96 h. Proliferation was assessed by ^3H-thymidine incorporation.
# A CIC is considered to induce “little” human B cell proliferation if B cell proliferation in the presence of the CIC is between greater than 15 to about 30% of P-6.
# Human PBMCs were isolated from heparanized blood from two normal subjects. Some PBMCs were held in reserve while the remainder was incubated with CD19+ MACS beads (Miltenyi Biotec). These cells were then passed through a magnet, separating the CD19+ B cells through positive selection. […] B cells were then cultured at 1×10^5/200 μl/well in 96-well round-bottomed plates. In some cases, PBMCs were also cultured, but at 2×10^5/200 μl/well. Cells were stimulated in triplicate with 2 μg/ml polynucleotide or CIC. The culture period was 48 hours at 37° C. At the end of the culture period, the plates were pulsed with ^3H-thymidine, 1 μCi/well, and incubated for an additional 8 hours. Then the plates were harvested using standard liquid scintillation techniques and data was collected in counts per minutes (cpm).
# human PBMCs = assay: Human PBMC cytokine response assay (IFN-γ and IFN-α in cell-free medium by ELISA), with or without cPLGA;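 on IFN-α (pg/ml) mean: 20 µg/mL compound for 24 hours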;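 on IFN-γ (pg/ml) mean: 20 µg/mL compound for 24 hours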; format: cell-based; settings: for IFN-γ (pg/ml) 28065: donor 28065 (high background), 1000 = outside assay limits; for IFN-γ (pg/ml) 28065 / IFN-α (pg/ml) 28065 / IFN-α (pg/ml) 28066 / IFN-γ (pg/ml) 28066 / IFN-α (pg/ml) 28067 / IFN-γ (pg/ml) 28067 / IFN-α (pg/ml) 28068 / IFN-γ (pg/ml) 28068 / IFN-α (pg/ml) mean / IFN-γ (pg/ml) mean: 20 ug/ml, + PLGA = premixed with 100 μg/ml cPLGA; for IFN-γ (pg/ml) 28065 / IFN-α (pg/ml) 28065 / IFN-α (pg/ml) 28066 / IFN-γ (pg/ml) 28066 / IFN-α (pg/ml) 28067 / IFN-γ (pg/ml) 28067 / IFN-α (pg/ml) 28068 / IFN-γ (pg/ml) 28068 / IFN-α (pg/ml) mean / IFN-γ (pg/ml) mean / IFN-α induction (FIG. 10), in words: 24 h; for IFN-α (pg/ml) 28065: donor 28065; for IFN-α (pg/ml) 28066 / IFN-γ (pg/ml) 28066: donor 28066; for IFN-α (pg/ml) 28067 / IFN-γ (pg/ml) 28067: donor 28067; for IFN-α (pg/ml) 28068 / IFN-γ (pg/ml) 28068: donor 28068; for IFN-α (pg/ml) mean / IFN-γ (pg/ml) mean: mean of donors 28065-28068; for IFN-α induction (FIG. 10), in words: PBMCs from 8 donors, 20 μg/ml
# [1] = Table 24, mean of donors 28234-28237
Substance,cpm2 (CD19+ B cells; donor 121),cpm3 (CD19+ B cells; donor 121),mean cpm (CD19+ B cells; donor 121 mean),cpm1 (CD19+ B cells; donor 194),cpm2 (CD19+ B cells; donor 194),cpm3 (CD19+ B cells; donor 194),mean cpm (CD19+ B cells; donor 194 mean),mean of both (CD19+ B cells),IFN-γ (pg/ml) 28065 (human PBMCs),IFN-α (pg/ml) 28065 (human PBMCs),IFN-α (pg/ml) 28066 (human PBMCs),IFN-γ (pg/ml) 28066 (human PBMCs),IFN-α (pg/ml) 28067 (human PBMCs),IFN-γ (pg/ml) 28067 (human PBMCs),IFN-α (pg/ml) 28068 (human PBMCs),IFN-γ (pg/ml) 28068 (human PBMCs),IFN-α (pg/ml) mean (human PBMCs),IFN-γ (pg/ml) mean (human PBMCs),"B cell proliferation (FIG. 11), in words (CD19+ B cells)","IFN-α induction (FIG. 10), in words (human PBMCs)",other results
5′-TCGTCG-3′-TEG-5′-ACGTTCG-3′-TEG-5′-AGATGAT-3′ [Compound C-18],17085 cpm,14653 cpm,15869 cpm,10028 cpm,12217 cpm,10538 cpm,10928 cpm,13398 cpm,1000 pg/mL,51 pg/mL,9 pg/mL,102 pg/mL,16 pg/mL,27 pg/mL,162 pg/mL,695 pg/mL,59 pg/mL,456 pg/mL,–,–,–
5′-TCGTCG-3′-C4-5′-ACGTTCG-3′-C4-5′-AGATGAT-3′ [Compound C-17],30426 cpm,9895 cpm,22765 cpm,17467 cpm,14890 cpm,10518 cpm,14292 cpm,18529 cpm,1000 pg/mL,21 pg/mL,0 pg/mL,6 pg/mL,22 pg/mL,32 pg/mL,95 pg/mL,459 pg/mL,34 pg/mL,374 pg/mL,–,–,cpm1 (CD19+ B cells; donor 121): 27975 cpm
(5′-TCGTCGT-3′-HEG)2-glycerol-HEG-5′-TCGTCGT-3′ [Compound C-142],–,–,–,–,–,–,–,–,–,–,–,–,–,–,–,–,–,–,induce B cells to proliferate,induce high levels of IFN-α,–
(5′-TCGTCGA-3′-C3)2-glycerol-C3-5′-TCGTCGA-3′ [Compound C-104],–,–,–,–,–,–,–,–,–,–,–,–,–,–,–,–,–,–,stimulates B cells to proliferate,induces no measurable IFN-α,"IFN-α (human PBMCs; Table 24, donor 28234): 16 pg/mL; IFN-γ (human PBMCs; Table 24, donor 28234): 14 pg/mL; IFN-α (human PBMCs; Table 24, donor 28235): 29 pg/mL; IFN-γ (human PBMCs; Table 24, donor 28235): 4 pg/mL; IFN-α (human PBMCs; Table 24, donor 28236): 16 pg/mL; IFN-γ (human PBMCs; Table 24, donor 28236): 87 pg/mL; IFN-α (human PBMCs; Table 24, donor 28237): 16 pg/mL; IFN-γ (human PBMCs; Table 24, donor 28237): 125 pg/mL; IFN-α mean (human PBMCs; [1]): 19 pg/mL; IFN-γ mean (human PBMCs; [1]): 58 pg/mL; IFN-α induction, in words (human PBMCs; used alone): HEG (C-94)>TEG (C-103)>C3 (C-104)=no linker (C-28)"
